Laboratory results from PubChem BioAssay AID248 (DTP/NCI, 2004).
Where “and” joins values, the source holds several entries; their conditions need not be identical. Identical values can stand only once. Toxic doses and inconclusive results are not listed. Rule as the data show it: active = T/C of 150% or more; inactive = T/C below 125%.

System: L1210 leukemia ip in BDF1 mice, survival T/C
Assay: NCI In Vivo Anticancer Drug Screen. Data for tumor model L1210 Leukemia (intraperitoneal) in B6D2F1 (BDF1) mice
Conditions: endpoint: mean survival time, higher = longer survival
In short: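 Mice bearing the transplanted tumor received compound or vehicle. Survival of the treated group was divided by that of the vehicle-treated control group to give the ratio.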

[1] = dose: 100.0 mg/kg/injection, schedule: Q01DX009 (ip), vehicle: Klucel (hydroxypropylcellulose) (HPC)
[2] = dose: 100.0 mg/kg/injection, schedule: Q01DX009 (ip), vehicle: saline
[3] = dose: 100.0 mg/kg/injection, schedule: Q04DX003 (ip), vehicle: Klucel (hydroxypropylcellulose) (HPC)
[4] = dose: 200.0 mg/kg/injection, schedule: Q01DX009 (ip), vehicle: saline
[5] = dose: 200.0 mg/kg/injection, schedule: Q04DX003 (ip), vehicle: Klucel (hydroxypropylcellulose) (HPC)
[6] = dose: 100.0 mg/kg/injection, schedule: Q04DX003 (ip), vehicle: saline with Tween-80
[7] = dose: 200.0 mg/kg/injection, schedule: Q04DX003 (ip), vehicle: saline with Tween-80
[8] = dose: 400.0 mg/kg/injection, schedule: Q04DX003 (ip), vehicle: saline with Tween-80
[9] = dose: 100.0 mg/kg/injection, schedule: Q04DX002 (ip), vehicle: Klucel (hydroxypropylcellulose) (HPC)
[10] = dose: 200.0 mg/kg/injection, schedule: Q04DX002 (ip), vehicle: Klucel (hydroxypropylcellulose) (HPC)
[11] = dose: 50.0 mg/kg/injection, schedule: Q01DX009 (ip), vehicle: saline
[12] = dose: 200.0 mg/kg/injection, schedule: Q01DX009 (ip), vehicle: Klucel (hydroxypropylcellulose) (HPC)
[13] = dose: 400.0 mg/kg/injection, schedule: Q04DX002 (ip), vehicle: Klucel (hydroxypropylcellulose) (HPC)
[14] = dose: 100.0 mg/kg/injection, schedule: Q01DX009 (ip), vehicle: saline with Tween-80
[15] = dose: 200.0 mg/kg/injection, schedule: Q01DX009 (ip), vehicle: saline with Tween-80
[16] = dose: 400.0 mg/kg/injection, schedule: Q01DX009 (ip), vehicle: saline with Tween-80

Measured: T/C

CCCCCCCCCCCCCCCCCC1=NCC[N+]1(CCO)Cc1ccccc1 (stereo not drawn) (tested in a mixture with another compound)
inactive: dose: 12.5 mg/kg/injection, schedule: Q04DX003 (ip), vehicle: saline with Tween-80 98 % of control | dose: 25.0 mg/kg/injection, schedule: Q04DX003 (ip), vehicle: saline with Tween-80 101 % of control

CN(C)/N=C/C=C/c1ccccc1
inactive: dose: 25.0 mg/kg/injection, schedule: Q01DX009 (ip), vehicle: Klucel (hydroxypropylcellulose) (HPC) 98 % of control | dose: 50.0 mg/kg/injection, schedule: Q01DX009 (ip), vehicle: Klucel (hydroxypropylcellulose) (HPC) 102 % of control | dose: 50.0 mg/kg/injection, schedule: Q04DX003 (ip), vehicle: Klucel (hydroxypropylcellulose) (HPC) 100 % of control | [1] 88 % of control | [2] 105 % of control | [3] 99 % of control | dose: 100.0 mg/kg/injection, schedule: Q04DX003 (ip), vehicle: saline 98 % of control | [4] 100 % of control | [5] 97 % of control | dose: 200.0 mg/kg/injection, schedule: Q04DX003 (ip), vehicle: saline 97 % of control | dose: 400.0 mg/kg/injection, schedule: Q04DX003 (ip), vehicle: saline 102 % of control

O=Nc1ccc(O)c(Cl)c1
inactive: dose: 100.0 mg/kg/injection, schedule: Q01DX001 (ip), vehicle: Klucel (hydroxypropylcellulose) (HPC) 95 % of control | dose: 200.0 mg/kg/injection, schedule: Q01DX001 (ip), vehicle: Klucel (hydroxypropylcellulose) (HPC) 98 % of control

CCC12CCC(Br)C(C1)OC2=O (stereo not drawn)
inactive: [6] 98 % of control | [7] 91 % of control | [8] 93 % of control

O=C(OCC1OC(n2ccc(=O)nc2[Se])C(OC(=O)c2ccccc2)C1OC(=O)c1ccccc1)c1ccccc1 (stereo not drawn)
inactive: dose: 100.0 mg/kg/injection, schedule: Q01DX005 (ip), vehicle: saline 89 % of control | dose: 200.0 mg/kg/injection, schedule: Q01DX005 (ip), vehicle: saline 96 % of control

Cc1ccc(NC(=S)NNC(=S)NNc2ccccc2)cc1
inactive: [9] 86 % of control | [10] 94 % of control

CC(=O)CCC(=O)OCCCl
inactive: [11] 102 % of control | [2] 101 % of control | [4] 101 % of control

O=S(=O)(N/C(=C(/c1ccccc1)N(c1ccccc1)S(=O)(=O)c1ccccc1)c1ccccc1)c1ccccc1
inactive: dose: 75.0 mg/kg/injection, schedule: Q01DX001 (ip), vehicle: Klucel (hydroxypropylcellulose) (HPC) 90 % of control | dose: 150.0 mg/kg/injection, schedule: Q01DX001 (ip), vehicle: Klucel (hydroxypropylcellulose) (HPC) 87 % of control | dose: 300.0 mg/kg/injection, schedule: Q01DX001 (ip), vehicle: Klucel (hydroxypropylcellulose) (HPC) 90 % of control

Cc1ccnc(NC(=O)Nc2cc(F)ccc2F)c1
inactive: [1] 92 % of control and 103 % of control | [9] 101 % of control and 90 % of control | [3] 97 % of control | [12] 92 % of control and 89 % of control | [10] 90 % of control | [5] 93 % of control | dose: 400.0 mg/kg/injection, schedule: Q01DX009 (ip), vehicle: Klucel (hydroxypropylcellulose) (HPC) 94 % of control and 98 % of control | [13] 95 % of control and 90 % of control | dose: 400.0 mg/kg/injection, schedule: Q04DX003 (ip), vehicle: Klucel (hydroxypropylcellulose) (HPC) 87 % of control

N#CSCc1cc([N+](=O)[O-])c(CSC#N)c([N+](=O)[O-])c1Cl
inactive: dose: 25.0 mg/kg/injection, schedule: Q01DX009 (ip), vehicle: other 89 % of control | dose: 100.0 mg/kg/injection, schedule: Q04DX003 (ip), vehicle: carboxymethylcellulose (CMC) 87 % of control | dose: 200.0 mg/kg/injection, schedule: Q04DX003 (ip), vehicle: carboxymethylcellulose (CMC) 93 % of control

O=C(COc1ccc(Cl)cc1)Nc1ccccc1Br
inactive: dose: 100.0 mg/kg/injection, schedule: Q04DX002 (ip), vehicle: saline + alcohol 96 % of control | dose: 200.0 mg/kg/injection, schedule: Q04DX002 (ip), vehicle: saline + alcohol 107 % of control | dose: 400.0 mg/kg/injection, schedule: Q04DX002 (ip), vehicle: saline + alcohol 103 % of control

CC(=O)c1ccc(CCC(=O)O)cc1
inactive: dose: 100.0 mg/kg/injection, schedule: Q04DX002 (ip), vehicle: saline with Tween-80 94 % of control | dose: 200.0 mg/kg/injection, schedule: Q04DX002 (ip), vehicle: saline with Tween-80 98 % of control | dose: 400.0 mg/kg/injection, schedule: Q04DX002 (ip), vehicle: saline with Tween-80 90 % of control

CC1c2ccccc2N(CCCN(C)C)c2ccccc21
inactive: dose: 4.0 mg/kg/injection, schedule: Q01DX015 (ip), vehicle: saline 105 % of control | dose: 8.0 mg/kg/injection, schedule: Q01DX015 (ip), vehicle: saline 103 % of control | dose: 16.0 mg/kg/injection, schedule: Q01DX015 (ip), vehicle: saline 97 % of control | dose: 32.0 mg/kg/injection, schedule: Q01DX015 (ip), vehicle: saline 97 % of control and 100 % of control | dose: 50.0 mg/kg/injection, schedule: Q04DX003 (ip), vehicle: saline 108 % of control | dose: 64.0 mg/kg/injection, schedule: Q01DX015 (ip), vehicle: saline 97 % of control | dose: 128.0 mg/kg/injection, schedule: Q01DX015 (ip), vehicle: saline 92 % of control

Cc1ccccc1NC(=O)Oc1ccccc1-c1ccccc1
inactive: [9] 103 % of control | [10] 118 % of control | [13] 118 % of control

CCC(C(=O)O)N1C(=O)C2C3C=CC(C3)C2C1=O (stereo not drawn)
inactive: [6] 94 % of control and 96 % of control | [7] 96 % of control and 105 % of control | [8] 105 % of control

CC1CC(C)(C)OC(C(Cl)(Cl)Cl)O1 (stereo not drawn)
inactive: [11] 98 % of control | [2] 93 % of control | dose: 100.0 mg/kg/injection, schedule: Q04DX003 (ip), vehicle: acetone 112 % of control | [4] 93 % of control | dose: 200.0 mg/kg/injection, schedule: Q04DX003 (ip), vehicle: acetone 106 % of control | dose: 400.0 mg/kg/injection, schedule: Q04DX003 (ip), vehicle: acetone 103 % of control

CC(=O)Nc1cc2cc(Br)ccc2oc1=O
inactive: [1] 95 % of control | [12] 93 % of control

COc1ccc(Cl)cc1NC(=O)c1ccc(Cl)cc1Cl
inactive: [14] 96 % of control | [6] 98 % of control | [15] 94 % of control | [7] 93 % of control | [16] 102 % of control | [8] 97 % of control

CC(NC(=O)c1cnc2ccccc2n1)C(=O)NCC(=O)O (stereo not drawn)
inactive: dose: 100.0 mg/kg/injection, schedule: Q01DX001 (ip), vehicle: carboxymethylcellulose (CMC) 93 % of control | dose: 200.0 mg/kg/injection, schedule: Q01DX001 (ip), vehicle: carboxymethylcellulose (CMC) 89 % of control | dose: 400.0 mg/kg/injection, schedule: Q01DX001 (ip), vehicle: carboxymethylcellulose (CMC) 94 % of control

CSC(=O)N=Nc1c(O)n(C)c(=O)n(C)c1=O
inactive: dose: 12.5 mg/kg/injection, schedule: Q01DX009 (ip), vehicle: saline with Tween-80 104 % of control | dose: 25.0 mg/kg/injection, schedule: Q01DX009 (ip), vehicle: saline with Tween-80 97 % of control | dose: 50.0 mg/kg/injection, schedule: Q01DX009 (ip), vehicle: saline with Tween-80 97 % of control and 87 % of control

CN(C)C(=S)N1C(=O)C2C3CCC(O3)C2C1=O (stereo not drawn)
inactive: dose: 3.13 mg/kg/injection, schedule: Q01DX009 (ip), vehicle: saline with Tween-80 102 % of control | dose: 6.25 mg/kg/injection, schedule: Q01DX009 (ip), vehicle: saline with Tween-80 98 % of control | dose: 6.25 mg/kg/injection, schedule: Q04DX002 (ip), vehicle: saline with Tween-80 106 % of control | dose: 12.5 mg/kg/injection, schedule: Q04DX002 (ip), vehicle: saline with Tween-80 87 % of control

CC(C)CCNc1ncnc2nc[nH]c12
inactive: dose: 75.0 mg/kg/injection, schedule: Q01DX001 (ip), vehicle: saline 90 % of control | dose: 150.0 mg/kg/injection, schedule: Q01DX001 (ip), vehicle: saline 92 % of control

COC(=O)C/C=C/CC(=O)OC
inactive: [14] 95 % of control | [15] 90 % of control | [16] 88 % of control
